We go through eleven compounds from paper PMC10057332, “Anticancer and Targeting Activity of Phytopharmaceutical Structural Analogs of a Natural Peptide from Trichoderma longibrachiatum and Related Peptide-Decorated Gold Nanoparticles” (International Journal of Molecular Sciences, 2023).

pIC50: −log10 of the molar value. “And” between values parts separate entries of the source, which are not always exact repeats. Identical values can stand only once. Residues, ends and D or L forms follow the SMILES beside them. A value given as a limit tells only on which side of the number the result lay.

The subject of one data set is MDA-MB-231 cells. Description: MTS cytotoxicity in MDA-MB-231 triple negative breast cancer cells. The data set is classed as cell-based, human. Particulars: for pIC50: cells exposed to peptaibols for 24 h, MTS assay; for killing activity in cancer cells: 10 µM peptide. As for the experimental part:
(§1) Cells were incubated with increasing concentrations of peptides for 24 h before assessing cell viability with MTS assay in order to create dose/response curves (Figure 4) and calculate the half maximal inhibitory concentration (IC50) values for each peptaibol (Table 3). For convenience, peptides have been subdivided based on their C-terminal substituents, i.e., leucinol (lol) or amide (-NH2).
(§2) The cytotoxicity of peptides and free Api8- and Leu4-decorated GNPs was assessed with the MTS assay (CellTiter 96® AQueous One Solution Cell Proliferation Assay, Promega, Milan, Italy) in cancer MDA-MB-231 and normal MCF-10A cells exposed to increasing concentrations of peptaibols/GNPs for 24 h. Cells (8 × 10^3 cells/well for MDA-MB-231, 6 × 10^3 cells/well for MCF-10A) were seeded in 96-well plates, and after 24 h the medium was replaced with a fresh one containing peptaibols/GNPs. For MTS assay, the medium was replaced with 100 μL of serum-free medium and 20 μL of the CellTiter 96® reagent. After 60–90 min, the absorbance at 492 nm was measured with a Multiskan Go (Thermo Fischer Scientific, Carlsbad, CA, USA) plate reader and cell viability was expressed as a function of absorbance relative to that of control cells (considered as 100% viability). IC50 values for each peptaibol treatment were extrapolated from the relative dose–response curves obtained with the software GraphPad Prism 9.5.
A general note: Tetrazolium assays rely on reduction of a dye to a coloured formazan, in cell work by metabolically active cells.

Another data set has as its system MCF-10A cells. Description: MTS cytotoxicity in normal epithelial breast MCF-10A cells. Format: cell-based, human. To be noted: for pIC50: cells exposed to peptaibols for 24 h, MTS assay; for effect on viability of MCF-10A cells: peptide concentration range tested, 24 h, MTS. As for the experimental part: as §1, §2
The conditions of data set [1]: MCF-10A cells, 1 h at 37 °C, CD at 25 °C.
Method: The CD profile of Api8-NH2 and Leu4-NH2 was also acquired in the presence of cells (cell line MCF-10A) (Figure 1). This study also provided information on the stability of the peptides in the biological environment [63].
Figure 1 CD profiles of Leu4-NH2 and Api8-NH2 acquired at 25 °C in the presence of MCF-10A epithelial breast cells. (Peptide concentrations: Api8, 5 × 10^−5 M; Leu4, 1 × 10^−5 M).
The CD spectra were obtained on a Jasco (Tokyo, Japan) J-1500 spectropolarimeter. Fused quartz cells (Hellma, Mühlheim, Germany) of 1 mm path length were used. The values are expressed in terms of [θ]T, total molar ellipticity (deg∙cm^2∙dmol^−1). […] The CD measurements in cells were performed as follows: 1 × 10^6 cells were harvested, washed twice in PBS and incubated in the same buffer with peptides (concentrations: Api8, 5 × 10^−5 M; Leu4, 1 × 10^−5 M) for 1 h at 37°C in a rotating mixer before recording the CD spectra.
Data set [2] concerns MDA-MB-231 with respect to MCF-10A cells. Nature of the data set: Flow cytometry uptake of FITC-conjugated peptaibols. Format: cell-based, human. To be noted: highest concentration tested, 24 h incubation. As for the experimental part: For this study, we decided to focus our attention on the unique, noncytotoxic, yet membrane-active peptides Leu4-NH2 and Api8-NH2 to study them as potential cancer-targeting agents. […] As reference, K6-NH2 internalization was measured as well, since for this specific peptide, previous studies already reported an increased uptake in tumor cells (HDLM-2 and A2780 tumor cell lines) with respect to normal healthy cells, such as peripheral blood mononuclear cells (PBMCs) or fibroblasts.
Figure 5 Flow cytometry measurements of FITC-conjugated peptaibols in MDA-MB-231 (a) and MCF-10 (b) cells after a 24 h incubation period.
Flow cytometry and peptides conjugated with FITC, namely Api8-FITC and Leu4-FITC, were used to assess the capacity of peptaibols to be internalized by breast cancer cells, Briefly, 8 × 10^4 MDA-MB-231 and MCF-10A cells/well were grown in 24-well plates for 24 h and then incubated for 24 h with 5 μM peptaibols. […] Those washings both before cell detachment from plates and after cell recovery and centrifugation removed any peptides not strongly associated with cell plasma membranes, assuring FITC signals measured by flow cytometry were referred exclusively to internalized peptides. Cells were centrifuged and resuspended in Versene before measuring FITC fluorescence using a BD Fortessa^TM X-20 flow cytometer (Becton Dickinson, San Jose, CA, USA). […]
In general terms: A flow cytometer gives signals particle by particle.

With `CCCCCCCC(=O)NC(C)(C)C(=O)NCC(=O)N[C@@H](CC(C)C)C(=O)NC(C)(C)C(=O)NCC(=O)NCC(=O)N[C@@H](CC(C)C)C(=O)NC1(C(=O)NCC(=O)N[C@H](C(=O)N[C@@H](CC(C)C)C(N)=O)[C@@H](C)CC)CCNCC1` [Api8-NH2, Oct-Aib^1-Gly-Leu-Aib^4-Gly-Gly-Leu-Api^8-Gly-Ile-Leu^11-NH2] (HELM PEPTIDE1{[CCCCCCCC(=O)[*:2]].[Aib].G.L.[Aib].G.G.L.[O=C(C1(N[*:1])CCNCC1)[*:2]].G.I.L.[am]}$$$$V2.0), in the data set with MDA-MB-231 cells, the pIC50 was below 4.70. Further, the “effect on viability of MDA-MB-231 cells” value with MDA-MB-231 cells (peptide concentration range tested, 24 h, MTS) is “did not significantly affect the viability”. For the same compound, in the data set on MCF-10A cells, the negative logarithm of the IC50 (pIC50) is below 4.70 and the “effect on viability of MCF-10A cells” value is “did not significantly affect the viability”. In addition, the “stability in the presence of cells (CD)” value in data set [1] is given as “stability of the peptides in the presence of cells”.

On to `CCCCCCCC(=O)NC(C)(C)C(=O)N[C@@H](CCCCN)C(=O)N[C@@H](CC(C)C)C(=O)NC(C)(C)C(=O)NCC(=O)NCC(=O)N[C@@H](CC(C)C)C(=O)NC(C)(C)C(=O)NCC(=O)N[C@H](C(=O)N[C@@H](CC(C)C)C(N)=O)[C@@H](C)CC` [K2-NH2, Oct-Aib^1-Lys-Leu-Aib^4-Gly-Gly-Leu-Aib^8-Gly-Ile-Leu^11-NH2] (HELM PEPTIDE1{[CCCCCCCC(=O)[*:2]].[Aib].K.L.[Aib].G.G.L.[Aib].G.I.L.[am]}$$$$V2.0), for which the “killing activity in cancer cells” value in the data set on MDA-MB-231 cells (24 h, MTS) is recorded as “about 90%”. The figures for the pIC50 with MDA-MB-231 cells and with MCF-10A cells were 5.05 and 4.77, respectively.

With `CCCCCCCC(=O)NC(C)(C)C(=O)N[C@@H](CCCCN)C(=O)N[C@@H](CC(C)C)C(=O)NC(C)(C)C(=O)N[C@@H](CCCCN)C(=O)NCC(=O)N[C@@H](CC(C)C)C(=O)NC(C)(C)C(=O)NCC(=O)N[C@H](C(=O)N[C@H](CO)CC(C)C)[C@@H](C)CC` [K25-Lol, Oct-Aib^1-Lys-Leu-Aib^4-Lys-Gly-Leu-Aib^8-Gly-Ile-Lol^11] (HELM PEPTIDE1{[CCCCCCCC(=O)[*:2]].[Aib].K.L.[Aib].K.G.L.[Aib].G.I.[CC(C)C[C@@H](CO)N[*:1]]}$$$$V2.0), in the data set on MDA-MB-231 cells (24 h, MTS), the “killing activity in cancer cells” value was around 60%. The values for the negative logarithm of the IC50 (pIC50) in the data set with MDA-MB-231 cells and in the data set with MCF-10A cells were 5.05 and 4.80, respectively.

As to `CCCCCCCC(=O)NC(C)(C)C(=O)NCC(=O)N[C@@H](CC(C)C)C(=O)NC(C)(C)C(=O)N[C@@H](CCCCN)C(=O)N[C@@H](CCCCN)C(=O)N[C@@H](CC(C)C)C(=O)NC(C)(C)C(=O)NCC(=O)N[C@H](C(=O)N[C@H](CO)CC(C)C)[C@@H](C)CC` [K56-Lol, Oct-Aib^1-Gly-Leu-Aib^4-Lys-Lys-Leu-Aib^8-Gly-Ile-Lol^11], the “killing activity in cancer cells” value in the data set with MDA-MB-231 cells (24 h, MTS) is recorded as around 20%. Further, the negative logarithm of the IC50 (pIC50) in the data set on MDA-MB-231 cells is 4.92; in the data set with MCF-10A cells, 4.74.

In the case of `CCCCCCCC(=O)NC(C)(C)C(=O)N[C@@H](CCCCN)C(=O)N[C@@H](CC(C)C)C(=O)NC(C)(C)C(=O)N[C@@H](CCCCN)C(=O)NCC(=O)N[C@@H](CC(C)C)C(=O)NC(C)(C)C(=O)N[C@@H](CCCCN)C(=O)N[C@H](C(=O)N[C@H](CO)CC(C)C)[C@@H](C)CC` [K259-Lol, Oct-Aib^1-Lys-Leu-Aib^4-Lys-Gly-Leu-Aib^8-Lys-Ile-Lol^11] (HELM PEPTIDE1{[CCCCCCCC(=O)[*:2]].[Aib].K.L.[Aib].K.G.L.[Aib].K.I.[CC(C)C[C@@H](CO)N[*:1]]}$$$$V2.0), in the data set with MDA-MB-231 cells (24 h, MTS), the “killing activity in cancer cells” value is reported as around 60%. Also, the negative logarithm of the IC50 (pIC50) is 5.00 in the data set with MDA-MB-231 cells and 4.82 in the data set on MCF-10A cells.

Regarding `CCCCCCCC(=O)NC(C)(C)C(=O)N[C@@H](CCCCN)C(=O)N[C@@H](CC(C)C)C(=O)NC(C)(C)C(=O)N[C@@H](CCCCN)C(=O)NCC(=O)N[C@@H](CC(C)C)C(=O)NC(C)(C)C(=O)N[C@@H](CCCCN)C(=O)N[C@H](C(=O)N[C@@H](CC(C)C)C(N)=O)[C@@H](C)CC` [K259-NH2, Oct-Aib^1-Lys-Leu-Aib^4-Lys-Gly-Leu-Aib^8-Lys-Ile-Leu^11-NH2] (HELM PEPTIDE1{[CCCCCCCC(=O)[*:2]].[Aib].K.L.[Aib].K.G.L.[Aib].K.I.L.[am]}$$$$V2.0), the pIC50 with MDA-MB-231 cells was ~4.89 and 4.89; in the data set with MCF-10A cells, 4.77.

As to `CCCCCCCC(=O)NC(C)(C)C(=O)N[C@@H](CCCCN)C(=O)N[C@@H](CC(C)C)C(=O)NC(C)(C)C(=O)N[C@@H](CCCCN)C(=O)N[C@@H](CCCCN)C(=O)N[C@@H](CC(C)C)C(=O)NC(C)(C)C(=O)N[C@@H](CCCCN)C(=O)N[C@H](C(=O)N[C@H](CO)CC(C)C)[C@@H](C)CC` [K2569-Lol, Oct-Aib^1-Lys-Leu-Aib^4-Lys-Lys-Leu-Aib^8-Lys-Ile-Lol^11] (HELM PEPTIDE1{[CCCCCCCC(=O)[*:2]].[Aib].K.L.[Aib].K.K.L.[Aib].K.I.[CC(C)C[C@@H](CO)N[*:1]]}$$$$V2.0), the “killing activity in cancer cells” value with MDA-MB-231 cells (24 h, MTS) is around 30%. In addition, the figures for the pIC50 in the data set with MDA-MB-231 cells and with MCF-10A cells were 4.92 and 4.85, respectively.

On to `CCCCCCCC(=O)NC(C)(C)C(=O)NCC(=O)N[C@@H](CC(C)C)C(=O)N[C@@H](CC(C)C)C(=O)NCC(=O)NCC(=O)N[C@@H](CC(C)C)C(=O)NC(C)(C)C(=O)NCC(=O)N[C@H](C(=O)N[C@H](CO)CC(C)C)[C@@H](C)CC` [Leu4-Lol, reference compound] (HELM PEPTIDE1{[CCCCCCCC(=O)[*:2]].[Aib].G.L.L.G.G.L.[Aib].G.I.[CC(C)C[C@@H](CO)N[*:1]]}$$$$V2.0), for which the pIC50 in the data set with MDA-MB-231 cells and with MCF-10A cells was below 4.70 throughout. In the data set on MCF-10A cells, the “effect on viability of MCF-10A cells” value is recorded as “did not significantly affect the viability”.

Compound `CCCCCCCC(=O)NC(C)(C)C(=O)NCC(=O)N[C@@H](CC(C)C)C(=O)N[C@@H](CC(C)C)C(=O)NCC(=O)NCC(=O)N[C@@H](CC(C)C)C(=O)NC(C)(C)C(=O)NCC(=O)N[C@H](C(=O)N[C@@H](CC(C)C)C(N)=O)[C@@H](C)CC` [Leu4-NH2, Oct-Aib^1-Gly-Leu-Leu^4-Gly-Gly-Leu-Aib^8-Gly-Ile-Leu^11-NH2] (HELM PEPTIDE1{[CCCCCCCC(=O)[*:2]].[Aib].G.L.L.G.G.L.[Aib].G.I.L.[am]}$$$$V2.0) showed a pIC50 in the data set on MDA-MB-231 cells below 4.70. In the data set on MCF-10A cells, the pIC50 is below 4.70 and the “effect on viability of MCF-10A cells” value is “did not significantly affect the viability”. The “stability in the presence of cells (CD)” value in data set [1] is “stability of the peptides in the presence of cells”.

Regarding “Oct-Aib^1-Gly-Leu-Aib^4-Gly-Gly-Leu-Api^8-Gly-Ile-Leu^11-NH-(CH2)2-NH-FITC [Api8-FITC]”, in data set [2], the “internalization in MDA-MB-231 with respect to MCF-10A cells” value is around 3 folds.

For “Oct-Aib^1-Gly-Leu-Leu^4-Gly-Gly-Leu-Aib^8-Gly-Ile-Leu^11-NH-(CH2)2-NH-FITC [Leu4-FITC]”, in data set [2], the “internalization in MDA-MB-231 with respect to MCF-10A cells” value is “about 5 folds”.

Broadly, the pIC50 is the negative decadic logarithm of the IC50, by convention in mol/L. The low end stands for a high IC50, the high end for a low IC50.
